Source: publication PMC3735166, “Comparative Studies on Acetylcholinesterase Characteristics between the Aphids, Sitobion avenae and Rhopalosiphum padi” (Journal of Insect Science, 2013)
Counter-ions that a name gives are not always drawn. Like-named read-outs stand apart in the source and are kept apart here.

How the values were obtained:
[1] = biological target: T1, purified AChE from S. avenae (Sitobion avenae, UniProt Q66S75); assay: Substrate specificity and kinetic analysis of purified AChE from S. avenae; format: biochemical; conditions: for Vmax ± SE / Km: compound as substrate, 30°C; for Km: read-out: Km ± SE
T1 sequence (Q66S75 23-664): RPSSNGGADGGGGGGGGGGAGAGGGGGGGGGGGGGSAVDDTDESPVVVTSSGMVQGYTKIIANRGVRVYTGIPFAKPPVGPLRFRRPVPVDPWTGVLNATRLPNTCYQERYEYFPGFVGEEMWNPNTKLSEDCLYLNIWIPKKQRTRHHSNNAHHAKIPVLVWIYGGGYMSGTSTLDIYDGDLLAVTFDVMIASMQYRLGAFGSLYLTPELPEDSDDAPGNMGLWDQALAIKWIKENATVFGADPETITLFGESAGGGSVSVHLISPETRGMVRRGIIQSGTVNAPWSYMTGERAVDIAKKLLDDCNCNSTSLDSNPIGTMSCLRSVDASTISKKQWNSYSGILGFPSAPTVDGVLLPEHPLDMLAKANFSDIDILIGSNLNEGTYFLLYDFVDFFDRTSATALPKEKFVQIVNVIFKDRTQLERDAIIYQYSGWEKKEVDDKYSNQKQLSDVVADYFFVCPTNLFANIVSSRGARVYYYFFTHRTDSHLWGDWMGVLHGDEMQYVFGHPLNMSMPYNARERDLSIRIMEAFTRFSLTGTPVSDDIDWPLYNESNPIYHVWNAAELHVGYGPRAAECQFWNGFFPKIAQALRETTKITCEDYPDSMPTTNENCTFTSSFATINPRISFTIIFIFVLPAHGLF
Experimental: (§1) Purification of AChE from both aphid species was performed by affinity chromatography using procainamide as the affinity ligand. The procedure used in this study was according to the method of Gao and Zhu ([2001]) with some modifications, as follows:
(§2) Step 1: Preparation of crude extract. About 1.0 g apterous adults were homogenized in 10 mL ice-cold 0.1 M phosphate buffer (pH 7.5), containing 0.2 M NaCl and 0.5 % (v/v) Triton X-100 and three protease inhibitors (1 mM EDTA-Na2, 1 µM leupeptin, and 10 µM PMSF). The homogenate was filtered through cheesecloth and then centrifuged at 41,000 g, 4°C for 1 h. The supernatant, after being filtered through glass wool, was used as crude extract.
(§3) Step 2: Chromatography on sephadex G-25. […] The fractions (5 ml each) were collected at the flow rate of 45 mL/h at 4°C. All the fractions containing the AChE activity were collected as the enzyme resource for the next step.
(§4) Step 3: Procainamide affinity chromatography and removal of procainamide and condensation. The procainamide-based AChE affinity column was made according to the instructions from the manufacturer. […] The collected AChE dialyzed against 0.05 M, pH 7.5 phosphate buffer three times for 3 h. The enzyme was stored at 4°C and used as the enzyme source.
(§5) AChE activities were determined according to the method of Ellman et al. ([1961]) modified by Gao ([1987]), using ATCh, PrTCh, MeTCh and BuTCh as substrates. The AChE activities were determined at 6 substrate concentrations from 0.15625 to 5 mM based on the reaction at 30°C for 15 min and the reaction was stopped by the addition of 900 µL, DTNB (0.125 mM) with 40% ethanol, then the optical density (OD) was measured at 412 nm by spectrophotometer (Lambda Bio 40).
(§6) All statistical tests were performed by using SAS computer program (USA). Values of Michalelis-Menten constants (Km) and maximal velocities (Vmax) for four substrates were calculated by Enzfitter software (Biosoft, http://www.biosoft.com/).

[2] = biological target: T2, purified AChE from R. padi (Rhopalosiphum padi, UniProt Q6BCH8); assay: Substrate specificity and kinetic analysis of purified AChE from R. padi; format: biochemical; conditions: for Vmax ± SE / Km: compound as substrate, 30°C; for Km: read-out: Km ± SE
Experimental: as §1, §2, §3, §4, §5, §6

[3] = biological target: T2, purified AChE from R. padi; assay: as above; format: biochemical; conditions: substrate 15 mM
[4] = biological target: T3, crude extract AChE from R. padi (Rhopalosiphum padi, UniProt Q6BCH8); assay: Substrate specificity and kinetic analysis of crude extract AChE from R. padi; format: biochemical; conditions: compound as substrate, 30°C; for Km: read-out: Km ± SE
Experimental: as §2, §5, §6

[5] = biological target: T4, crude extract AChE from S. avenae (Sitobion avenae, UniProt Q66S75); assay: Substrate specificity and kinetic analysis of crude extract AChE from S. avenae; format: biochemical; conditions: compound as substrate, 30°C; for Km: read-out: Km ± SE
T4 sequence (Q66S75 23-664): T1 sequence (Q66S75 23-664)
Experimental: as §2, §5, §6

[6] = biological target: T4, crude extract AChE from S. avenae; assay: Inhibition of crude extract AChE from S. avenae (Ellman method, 5 min preincubation); format: biochemical; conditions: for I50 times higher in S. avenae than in R. padi: ratio of I50 values of Table 4
Experimental: as §2, §5
(§7) The value of median inhibition concentration (I50) for the inhibitors were calculated based on log (inhibitor concentration) vs. probit (percentage of inhibition) linear regression.

[7] = biological target: T3, crude extract AChE from R. padi; assay: Inhibition of crude extract AChE from R. padi (Ellman method, 5 min preincubation); format: biochemical; conditions: for inhibitory percentage of AChE specific activity: inhibitor 10 µM
Experimental: as §2, §5, §7

[8] = biological target: T2, purified AChE from R. padi; assay: Inhibition of purified AChE from R. padi (Ellman method, 5 min preincubation); format: biochemical; conditions: for inhibitory percentage of AChE specific activity: inhibitor 10 µM
Experimental: as §1, §2, §3, §4, §5, §7

[9] = test system: S. avenae and R. padi; conditions: comparison of the two aphid species, ref Lu and Gao 2009, cited from earlier work
[10] = biological target: T3, crude extract AChE from R. padi; conditions: comparison of the two aphid species; ref Lu and Gao 2009; cited from earlier work
[11] = biological target: T1, purified AChE from S. avenae; assay: Inhibition of purified AChE from S. avenae (Ellman method, 5 min preincubation); format: biochemical
Experimental: as §1, §2, §3, §4, §5, §7

[12] = S. avenae, preincubation 5 min at 30°C, mean of three determinations, read-out: I50 ± SE (median inhibition concentration)
[13] = preincubation 5 min at 30°C, mean of three determinations, read-out: I50 ± SE (median inhibition concentration)

T3 sequence (Q6BCH8 18-652): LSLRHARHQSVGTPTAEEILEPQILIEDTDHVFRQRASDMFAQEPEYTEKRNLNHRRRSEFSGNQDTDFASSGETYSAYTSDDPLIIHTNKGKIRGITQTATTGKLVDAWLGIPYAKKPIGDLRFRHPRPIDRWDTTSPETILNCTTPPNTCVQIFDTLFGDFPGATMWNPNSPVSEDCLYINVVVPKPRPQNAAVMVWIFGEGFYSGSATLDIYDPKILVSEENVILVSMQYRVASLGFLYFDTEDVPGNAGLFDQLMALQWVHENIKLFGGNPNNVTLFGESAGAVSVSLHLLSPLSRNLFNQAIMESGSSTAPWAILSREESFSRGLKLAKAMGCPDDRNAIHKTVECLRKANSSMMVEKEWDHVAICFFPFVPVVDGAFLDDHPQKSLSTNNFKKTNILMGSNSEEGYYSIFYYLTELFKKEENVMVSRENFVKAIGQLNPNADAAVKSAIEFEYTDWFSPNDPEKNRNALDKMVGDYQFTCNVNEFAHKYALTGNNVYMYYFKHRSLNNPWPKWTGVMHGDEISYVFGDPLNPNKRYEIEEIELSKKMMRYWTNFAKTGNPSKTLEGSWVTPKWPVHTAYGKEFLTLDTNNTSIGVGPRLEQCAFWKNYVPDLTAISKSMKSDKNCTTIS
T2 sequence (Q6BCH8 18-652): as above

Row | SMILES | Vmax ± SE [1] [nmol/min/mg protein] | Km [1] [µM] | Vmax ± SE [2] [nmol/min/mg protein] | Km [2] [µM] | Vmax ± SE [4] [nmol/min/mg protein] | Km [4] [µM] | Vmax ± SE [5] [nmol/min/mg protein] | Km [5] [µM] | other results
1 | CC(=O)SCC[N+](C)(C)C.[I-] [ATCh, Acetylthiocholine iodide] | 152.75 ± 3.63 | 2280 ± 120 | 37.58 ± 1.01 | 2180 ± 130 | 1.27 ± 0.05 | 360 ± 50 | 1.16 ± 0.11 | 650 ± 190 | substrate concentration at which substrate inhibition was observed [1]: > 10 mM; substrate concentration at which substrate inhibition was observed [2]: > 10 mM; specific activity of purified AChE [3]: 20.3 nmol/min/mg
2 | CNC(=O)Oc1ccc2c(c1)[C@]1(C)CCN(C)[C@@H]1N2C [Eserine, eserine hemisulfate salt] |  |  |  |  |  |  |  |  | I50 times higher in S. avenae than in R. padi [6]: 4.1 times; inhibitory percentage of AChE specific activity [7]: about 50%; inhibitory percentage of AChE specific activity [8]: more than 90%
3 | Cc1nc(N(C)C)nc(OC(=O)N(C)C)c1C [Pirimicarb] |  |  |  |  |  |  |  |  | susceptibility / tolerance to pirimicarb in bioassays, S. avenae versus R. padi [9]: higher for S. avenae than for R. padi; susceptibility / tolerance to pirimicarb in bioassays, S. avenae versus R. padi ([9]; listed as pirimicarb): R. padi was more susceptible than S. avenae; sensitivity of AChE to pirimicarb, R. padi versus S. avenae [10]: significantly higher in R. padi than in S. avenae
4 | CC(=O)SC(C)C[N+](C)(C)C (stereo not drawn) [MeTCh, acetyl-(β-methyl) thiocholine] | 118.32 ± 5.64 | 2230 ± 230 | 31.58 ± 1.03 | 2450 ± 170 | 1.10 ± 0.07 | 290 ± 80 | 1.01 ± 0.10 | 400 ± 140 | substrate concentration at which substrate inhibition was observed [1]: > 10 mM; substrate concentration at which substrate inhibition was observed [2]: > 10 mM; specific activity of purified AChE [3]: 17.7 nmol/min/mg
5 | CCCC(=O)SCC[N+](C)(C)C.[I-] [BuTCh, butyrylthiocholine iodide] | 9.09 ± 0.14 | 1690 ± 60 | 2.17 ± 0.09 | 670 ± 80 | 4.12 ± 1.34 | 5340 ± 2790 | 11.88 ± 3.88 | 15100 ± 6210 | 
6 | CCC(=O)SCC[N+](C)(C)C.[I-] [PrTCh, propionylthiocholine iodide] | 94.01 ± 4.41 | 930 ± 120 | 24.24 ± 0.30 | 850 ± 30 | 0.76 ± 0.03 | 180 ± 40 | 1.04 ± 0.15 | 570 ± 260 | 
7 | C=CC[N+](C)(C)c1ccc(CCC(=O)CCc2ccc([N+](C)(C)CC=C)cc2)cc1.[Br-].[Br-] [BW284C51, 1,5-bis(4-allyldimethylammoniumphenyl)-pentan-3-one dibromide] |  |  |  |  |  |  |  |  | inhibitory percentage of AChE specific activity ([11]; S. avenae, inhibitor 10 µM): > 80%; IC50 [11, 12]: 1 ± 0.13 µM; I50 fold lower in S. avenae than in R. padi ([11]; from I50 values of Table 5): 0.4 fold; IC50 [6, 12]: 24.7 ± 4.9 µM; I50 times higher in S. avenae than in R. padi [6]: 2.5 times; inhibitory percentage of AChE specific activity [7]: about 50%; IC50 [7, 13]: 9.7 ± 1 µM; inhibitory percentage of AChE specific activity [8]: > 80%; IC50 [8, 13]: 2.57 ± 0.34 µM
